Usually IC50 stands for the concentration needed to halve the response being measured.

The structures appear in SMILES notation.

The record followed here is patent EP4800015A1, “AZABICYCLO DERIVATIVE AND PREPARATION METHOD THEREFOR, AND USE” (Zhejiang Hisun Pharmaceutical Co., Ltd., priority 2023, dated 2025).

One data set relates to SW48 cells. Description: Inhibition of SW48 cell proliferation (CellTiter-Glo). The format is cell-based. The settings on record: Homo sapiens; SW48 cells (MSI-H), 120 hours. In outline:
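SW48 (MSI-H) cells in L-15 with 10% FBS were seeded at 500 per well, cultured overnight at 37 °C, then exposed to compound at final concentrations of 10000 nM to 1.52 nM for 120 h. Viability was read by CellTiter-Glo luminescence, with inhibition relative to 0.1% DMSO. IC50 from nonlinear regression of log concentration versus inhibition.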
In general terms: In ATP-based viability assays light output follows the ATP content of the culture.

In another data set the target is T1, recombinant human WRN (Homo sapiens, UniProt Q14191).
T1 construct: purchased BPS 101264
T1 sequence (Q14191 whole entry): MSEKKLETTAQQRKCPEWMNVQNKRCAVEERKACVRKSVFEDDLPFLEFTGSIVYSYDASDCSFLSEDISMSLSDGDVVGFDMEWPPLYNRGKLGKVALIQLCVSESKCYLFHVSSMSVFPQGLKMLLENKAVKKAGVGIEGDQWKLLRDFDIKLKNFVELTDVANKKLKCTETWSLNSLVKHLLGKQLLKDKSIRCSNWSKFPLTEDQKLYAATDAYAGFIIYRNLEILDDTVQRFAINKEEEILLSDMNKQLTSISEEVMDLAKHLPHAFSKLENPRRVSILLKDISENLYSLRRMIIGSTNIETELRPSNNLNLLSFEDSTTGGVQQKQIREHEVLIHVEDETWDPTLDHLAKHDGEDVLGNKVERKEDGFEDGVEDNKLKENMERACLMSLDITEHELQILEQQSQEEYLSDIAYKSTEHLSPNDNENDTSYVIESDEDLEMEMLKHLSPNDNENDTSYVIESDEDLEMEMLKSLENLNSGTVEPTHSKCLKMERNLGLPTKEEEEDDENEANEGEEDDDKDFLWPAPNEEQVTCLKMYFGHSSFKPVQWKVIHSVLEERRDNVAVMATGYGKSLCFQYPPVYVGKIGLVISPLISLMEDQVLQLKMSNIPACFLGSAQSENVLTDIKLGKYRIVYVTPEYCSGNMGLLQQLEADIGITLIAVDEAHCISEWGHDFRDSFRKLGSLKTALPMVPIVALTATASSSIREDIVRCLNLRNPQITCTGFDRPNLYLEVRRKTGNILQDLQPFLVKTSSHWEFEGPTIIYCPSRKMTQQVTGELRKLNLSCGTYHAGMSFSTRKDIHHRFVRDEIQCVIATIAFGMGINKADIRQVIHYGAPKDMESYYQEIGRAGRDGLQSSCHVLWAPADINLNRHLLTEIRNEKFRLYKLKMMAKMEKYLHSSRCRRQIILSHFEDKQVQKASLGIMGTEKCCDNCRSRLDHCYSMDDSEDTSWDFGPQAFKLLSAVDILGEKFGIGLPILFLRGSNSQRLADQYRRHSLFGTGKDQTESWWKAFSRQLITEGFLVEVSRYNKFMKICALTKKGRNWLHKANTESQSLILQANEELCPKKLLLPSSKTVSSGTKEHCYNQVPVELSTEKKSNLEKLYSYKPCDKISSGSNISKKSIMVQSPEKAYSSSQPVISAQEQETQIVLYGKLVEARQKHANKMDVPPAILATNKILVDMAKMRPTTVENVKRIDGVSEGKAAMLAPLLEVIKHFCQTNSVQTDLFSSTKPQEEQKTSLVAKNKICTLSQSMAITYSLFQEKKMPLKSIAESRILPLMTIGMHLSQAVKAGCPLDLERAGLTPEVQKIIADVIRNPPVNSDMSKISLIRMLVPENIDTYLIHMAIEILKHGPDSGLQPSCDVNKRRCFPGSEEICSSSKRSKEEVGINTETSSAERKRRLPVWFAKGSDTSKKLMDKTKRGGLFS
Briefly: Inhibition of WRN enzyme activity (ATPase), ADP-Glo Kinase Assay. The data set is classed as biochemical. The settings on record: WRN protein 5 nM, Flap 0.1 nM, ATP 30 µM; read-out: IC50. In outline:
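Recombinant human WRN (5 nM) was preincubated with compound (1000–0.004 nM) for 15 min at room temperature. Flap26 5'-flap DNA (0.1 nM) and 30 µM ATP were then added for 10 min in Tris pH 7.5, MgCl2, NaCl, BSA, Pluronic buffer. ADP was detected by ADP-Glo luminescence, and IC50 was obtained by nonlinear regression versus a 0.1% DMSO control.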
Background: ADP-Glo turns the ADP formed in a reaction into a luminescent signal.

The subject of another data set is RL95-2 cells. Briefly: Inhibition of RL95-2 cell proliferation (CellTiter-Glo). The data set is classed as cell-based. The settings on record: Homo sapiens; RL95-2 cells (MSI-H), 120 hours. The essentials:
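RL95-2 (MSI-H) cells, 500/well in DMEM/F12 with 10% FBS, adhered overnight, then treated 120 h at 37 °C, 5% CO2 with compound at final 1.52-10000 nM. Viability by CellTiter-Glo luminescence. Inhibition relative to 0.1% DMSO control; IC50 from nonlinear regression of log concentration versus inhibition.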

A short description of data set [1]: Pharmacokinetic test in mice after intragastric administration. The format is in vivo. The settings on record: male, mouse, plasma, ICR mice, Oral (10 mg/kg); for AUC(0-t): read-out: Area under curve AUC0-t; for half-life: read-out: Half-life T1/2 (converted); for Cmax: read-out: Plasma concentration Cmax. The method, then: ICR mice were used as test animals, the plasma concentrations of the control compound HRO761 and the compounds of the present disclosure at different time points after intragastric administration were determined by LC/MS/MS method, and the pharmacokinetic characteristics of the compounds of the present disclosure in mice were studied.
ICR mice, male, 30.8 to 38.0 g, purchased from Vital River Laboratory Animal Technology Co., Ltd.
An appropriate amount of the test compound was weighed, and an appropriate amount of DMA (N,N-dimethylacetamide), 30% Solutol HS15 (30% polyethylene glycol-15 hydroxystearate), and Saline (saline) were added sequentially, the mixture was ultrasonicated and vortex mixed to prepare a 1 mg/mL dosing formulation. The ratio of DMA:30% Solutol HS15:Saline was 5:5:90 (v/v/v).
After overnight fasting, ICR mice in each test compound injection group (9 mice per group) were administered intragastrically (PO, compound dose was 10 mg/kg, administration volume was 10 mL/kg), and food was given 4 hours after administration.
About 0.1 mL of blood was collected via the orbital cavity before administration and at 0.25 h, 0.5 h, 1 h, 2 h, 4 h, 8 h, 10 h, and 24 h after administration, and whole blood samples were placed in anticoagulant tubes containing EDTA-K2. The samples were placed on ice after collection, and plasma was separated by centrifugation (centrifugation conditions: 1500 g, 10 minutes). The collected plasma was stored at -40 to -20 °C before analysis.
The content of the test compound in mouse plasma after intragastric administration was determined by LC-MS/MS.

With `CCc1c(N2CCN(C(=O)c3ncnc(C)c3O)CC2)c(=O)n2nc(C3=CCCCCC3)nc2n1CC(=O)Nc1ccc(C(F)(F)F)cc1Cl` [Example 6, N-(2-chloro-4-(trifluoromethyl)phenyl)-2-(2-(cyclohept-1-en-1-yl)-5-ethyl-6-(4-(5-hydroxy-6-methylpyrimidine-4-carbonyl)piperazin-1-yl)-7-oxo-[1,2,4]triazolo[1,5-a]pyrimidin-4(7H)-yl)acetamide], in the data set with SW48 cells, the IC50 was in the range of 1 to 100 nM. Moreover, at recombinant human WRN, the IC50 is under 1 nM. Also, the IC50 with RL95-2 cells was 1 to 100 nM. In data set [1], the AUC(0-t) is 39700 ng·h/mL, the half-life is 1.26 h and the Cmax was 15900 ng/mL.

In the data set on SW48 cells, `CCc1c(N2CCN(C(=O)c3ncnc(C)c3O)CC2)c(=O)n2nc(C3=CCCCCC3)nc2n1CC(=O)Nc1ccc(S(F)(F)(F)(F)F)cc1` [Example 27, 2-(2-(cyclohept-1-en-1-yl)-5-ethyl-6-(4-(5-hydroxy-6-methylpyrimidine-4-carbonyl)piperazin-1-yl)-7-oxo-[1,2,4]triazolo[1,5-a]pyrimidin-4(7H)-yl)-N-(4-(pentafluoro-λ^66-sulfaneyl)phenyl)acet amide] displayed an IC50 of 1 to 100 nM. In addition, the half-inhibitory concentration (IC50) on recombinant human WRN was in the range of 1 to 100 nM. For the same compound, the IC50 in the data set on RL95-2 cells lay within 1 to 100 nM. Also, in data set [1], the AUC(0-t) turned out to be 66600 ng·h/mL, the half-life was 2.27 h and the Cmax is 18100 ng/mL.

In turn, `CCc1c(N2CCN(C(=O)c3ncnc(C)c3O)CC2)c(=O)n2nc(-c3ccc4occc4c3)nc2n1CC(=O)Nc1ccc(S(F)(F)(F)(F)F)cc1` [Example 97, 2-(2-(benzofuran-5-yl)-5-ethyl-6-(4-(5-hydroxy-6-methylpyrimidine-4-carbonyl)piperazin-1-yl)-7-oxo-[1,2,4]triazolo[1,5-a]pyrimidin-4(7H)-yl)-N-(4-(pentafluoro-λ^6-sulfaneyl)phenyl)acetamide] had an IC50 in the data set on SW48 cells of 1 to 100 nM. Further, on recombinant human WRN, the IC50 was in the range of 1 to 100 nM. Besides, the IC50 in the data set with RL95-2 cells lay in the range of 1 to 100 nM. Further, in data set [1], the AUC(0-t) came to 28500 ng·h/mL, the half-life was 2.3 h and the Cmax is 9920 ng/mL.

In the case of `CCc1c(N2CCN(C(=O)c3ncnc(C)c3O)CC2)c(=O)n2nc(C3=CC4COCC4C3)nc2n1CC(=O)Nc1ccc(C(F)(F)F)cc1Cl` (stereo not drawn) [Example 161, N-(2-chloro-4-(trifluoromethyl)phenyl)-2-(5-ethyl-6-(4-(5-hydroxy-6-methylpyrimidine-4-carbonyl)piperazin-1-yl)-7-oxo-2-(3,3a,4,6a-tetrahydro-1H-cyclopenta[c]furan-5-yl)-[1,2,4]triazolo[1,5-a]pyrimidin-4(7H)-yl)acetamide], the IC50 in the data set on SW48 cells, at recombinant human WRN and in the data set on RL95-2 cells was 1 to 100 nM each time.

As for `CCc1c(N2CCN(C(=O)c3ncnc(C)c3O)CC2)c(=O)n2nc(-c3cnc4c(c3)CCO4)nc2n1CC(=O)Nc1ccc(C(F)(F)F)cc1Cl` [Example 162, N-(2-chloro-4-(trifluoromethyl)phenyl)-2-(2-(2,3-dihydrofuro[2,3-b]pyridin-5-yl)-5-ethyl-6-(4-(5-hydroxy-6-methylpyrimidine-4-carbonyl)piperazin-1-yl)-7-oxo-[1,2,4]triazolo[1,5-a]pyrimidin-4 (7H)-yl)acetamide], the IC50 in the data set with SW48 cells, at recombinant human WRN and in the data set with RL95-2 cells was 1 to 100 nM each time.

Take `CCc1c(N2CCN(C(=O)c3ncnc(C)c3O)CC2)c(=O)n2nc(C3=CC4CC(OC)CC4C3)nc2n1CC(=O)Nc1ccc(C(F)(F)F)cc1Cl` (stereo not drawn) [Example 163, N-(2-chloro-4-(trifluoromethyl)phenyl)-2-(5-ethyl-6-(4-(5-hydroxy-6-methylpyrimidine-4-carbonyl)piperazin-1-yl)-2-(5-methoxy-1,3a,4,5,6,6a-hexahydropentalen-2-yl)-7-oxo-[1,2,4]triazolo[1,5-a]pyrimidin-4(7H)-yl)acetamide]: the IC50 in the data set on SW48 cells, at recombinant human WRN and in the data set with RL95-2 cells was 1 to 100 nM throughout.

Turning to `CCc1c(N2CCN(C(=O)c3ncccc3O)CC2)c(=O)n2nc(C3=CC4CC(C)(O)CC4C3)nc2n1CC(=O)Nc1ccc(C(F)(F)F)cc1Cl` (stereo not drawn) [Example 164, N-(2-chloro-4-(trifluoromethyl)phenyl)-2-(5-ethyl-2-(5-hydroxy-5-methyl-1,3a,4,5,6,6a-hexahydropentalen-2-yl)-6-(4-(3-hydroxypicolinoyl)piperazin-1-yl)-7-oxo-[1,2,4]triazolo[1,5-a]pyrimidin-4(7H)-yl)acetamide], the IC50 with SW48 cells, at recombinant human WRN and in the data set with RL95-2 cells was 1 to 100 nM each time.

For `CCc1c(N2CCN(C(=O)c3ncccc3O)CC2)c(=O)n2nc(C3=CC4CC(O)CC4C3)nc2n1CC(=O)Nc1ccc(S(F)(F)(F)(F)F)cc1` (stereo not drawn) [Example 178, 2-(5-ethyl-2-(5-hydroxy-1,3a,4,5,6,6a-hexahydropentalen-2-yl)-6-(4-(3-hydroxypicolinoyl)piperazin-1-yl)-7-oxo-[1,2,4]triazolo[1,5-a]pyrimidin-4(7H)-yl)-N-(4-(pentafluoro-λ^6-sulfaneyl)phenyl) acetamide], the IC50 with SW48 cells was 1 to 100 nM; on recombinant human WRN, under 1 nM; in the data set with RL95-2 cells, 1 to 100 nM.

Regarding `CCc1c(N2CCN(C(=O)c3ncnc(C)c3O)CC2)c(=O)n2nc(-c3ccc4c(ccn4CC)c3)nc2n1CC(=O)Nc1ccc(C(F)(F)F)cc1Cl` [Example 183, N-(2-chloro-4-(trifluoromethyl)phenyl)-2-(5-ethyl-2-(1-ethyl-1H-indol-5-yl)-6-(4-(5-hydroxy-6-methylpyrimidine-4-carbonyl)piperazin-1-yl)-7-oxo-[1,2,4]triazolo[1,5-a]pyrimidin-4(7H)-yl)ace tamide], the IC50 with SW48 cells, at recombinant human WRN and in the data set with RL95-2 cells was 1 to 100 nM throughout.

With `CCc1c(N2CCN(C(=O)c3ncnc(C)c3O)CC2)c(=O)n2nc(-c3ccc4c(ccn4C(C)C)c3)nc2n1CC(=O)Nc1ccc(C(F)(F)F)cc1Cl` [Example 184, N-(2-chloro-4-(trifluoromethyl)phenyl)-2-(5-ethyl-6-(4-(5-hydroxy-6-methylpyrimidine-4-carbonyl)piperazin-1-yl)-2-(1-isopropyl-1H-indol-5-yl)-7-oxo-[1,2,4]triazolo[1,5-a]pyrimidin-4(7H)-yl) acetamide], the IC50 in the data set on SW48 cells, at recombinant human WRN and with RL95-2 cells was 1 to 100 nM throughout.

As to `[2H]C([2H])([2H])n1ccc2cc(-c3nc4n(CC(=O)Nc5ccc(C(F)(F)F)cc5Cl)c(CC)c(N5CCN(C(=O)c6ncnc(C)c6O)CC5)c(=O)n4n3)ccc21` [Example 185, N-(2-chloro-4-(trifluoromethyl)phenyl)-2-(5-ethyl-6-(4-(5-hydroxy-6-methylpyrimidine-4-carbonyl)piperazin-1-yl)-2-(1-(methyl-d3)-1H-indol-5-yl)-7-oxo-[1,2,4]triazolo[1,5-a]pyrimidin-4(7H)-yl)acetamide], the IC50 with SW48 cells, at recombinant human WRN and in the data set on RL95-2 cells was 1 to 100 nM throughout.

For `CCc1c(N2CCN(C(=O)c3ncccc3O)CC2)c(=O)n2nc(C3=CC4CC(OC)CC4C3)nc2n1CC(=O)Nc1ccc(C(F)(F)F)cc1Cl` (stereo not drawn) [Example 186, N-(2-chloro-4-(trifluoromethyl)phenyl)-2-(5-ethyl-6-(4-(3-hydroxypicolinoyl)piperazin-1-yl)-2-(5-methoxy-1,3a,4,5,6,6a-hexahydropentalen-2-yl)-7-oxo-[1,2,4]triazolo[1,5-a]pyrimidin-4(7H)-yl)acetamide], the IC50 in the data set with SW48 cells, on recombinant human WRN and in the data set with RL95-2 cells was 1 to 100 nM throughout.

As for `CCc1c(N2CCN(C(=O)c3nccc(Cl)c3O)CC2)c(=O)n2nc(C3=CC4COCC4C3)nc2n1CC(=O)Nc1ccc(C(F)(F)F)cc1Cl` (stereo not drawn) [Example 188, 2-(6-(4-(4-chloro-3-hydroxypicolinoyl)piperazin-1-yl)-5-ethyl-7-oxo-2-(3,3a,4,6a-tetrahydro-1H-cyclopenta[c]furan-5-yl)-[1,2,4]triazolo[1,5-a]pyrimidin-4(7H)-yl)-N-(2-chloro-4-(trifluoromethyl)phenyl)acetamide], the IC50 with SW48 cells, at recombinant human WRN and in the data set on RL95-2 cells was 1 to 100 nM throughout.
